PubChem BioAssay AID2060505 (Molecular Pharmacology Branch, DTP, NCI, 2025)
Values joined by “and” are separate entries in the source; they are usually repeats but may differ in a detail not shown here. Equal values may be shown once.

System: 633275-114-R-J1-PDC complex spheroids, viability
Test: Anticancer human tumor 633275-114-R-J1-PDC patient-derived endometrial adenocarcinoma cell line growth inhibition [GQUAD]
Details: for viability, T/C: stronger effect = lower value; active means viability on the fitted dose curve at most 10% of control; inactive means the rest
From the text: DNA G-quadruplex Stabilizer Agents in Combinations in Complex Spheroids
A high-throughput screen of multi-cell type tumor spheroids was designed to identify active combinations of DNA G-quadruplex stabilizer agents and targeted small molecules. Complex spheroids include a stromal component modeled by human endothelial cells (HUVEC) and fibroblasts modeled by human mesenchymal stem cells (MSCs). The concentration ranges selected for each drug and investigational agent were based upon clinically achievable concentrations if the clinical Cmax of the agent was known.
Compounds. The drugs and investigational agents: pidnarulex (CX-5461; NSC782164), APTO-253 (NSC789042), BRACO-19 (NSC847499), peposertib (NSC802822), ceralasertib (NSC780249), elimusertib (NSC800525), camonsertib (NSC841442), AZD-1390 (NSC803789), olaparib (NSC753686), talazoparib (NSC767125), ART-558 (NSC835418), sotorasib (NSC818433), MRTX-1133 (NSC836407), SN-38 (NSC673596), topotecan (NSC609699), etoposide (NSC141540), doxorubicin (NSC123127), gemcitabine (NSC613327), 5-fluorouracil (NSC19893), paclitaxel (NSC125973), vemurafenib (NSC761431), panobinostat (NSC761190), R-306465 (JNJ-16241199; NSC773264), adavosertib (NSC754352), TP-3654 (NSC805149), carboplatin (NSC241240), KSQ-4279 (NSC840948), and staurosporine (NSC755774) were obtained from the National Cancer Institute (NCI) Developmental Therapeutics Program Chemical Repository (34). The FDA-approved anticancer drug set is available from the NCI Developmental Therapeutics Program. […] The stock solutions were prepared in dimethyl sulfoxide (DMSO, Sigma-Aldrich, St. Louis, MO, cat. D2650) at 800-fold the tested concentration and stored at -70 degrees C prior to their use. All drugs and investigational agents were tested over a range starting from a high concentration at or near the clinical Cmax and decreasing in half-log increments. If the clinical Cmax for an agent had not been determined, the highest concentration tested was 10 microM.
2.3 Cell Culture. All cells were maintained in an incubator at 37 degrees C and 5% CO2 with 95% humidity. The PDC lines were cultured according to standard operating procedures established by the NCI PDMR. All PDCs were thawed and cultured in Matrigel-coated flasks prepared with a working solution of 1X Ham's F-12 nutrient mix, without supplementation (Invitrogen, cat. 11765054), 100 U/mL penicillin-streptomycin (Invitrogen, cat. 15140122), and 2.5% Matrigel (Corning Inc., cat. 354248) for the first three passages. The 857933-349-R-J2-PDC line was cultured in 6C/Colon 1B media, which includes advanced DMEM/F-12 (Thermo Fisher Scientific, cat. 12634028), 10 mM HEPES (Thermo Fisher Scientific, cat. 15630080), 1X GlutaMAX supplement (Thermo Fisher Scientific, cat. 35050061), 0.1 mg/mL primocin (InvivoGen, cat. ant-pm-2), 10% defined fetal bovine serum, heat inactivated (HyClone Laboratories Inc., cat. SH30070.03HI), 50% L-WRN conditioned media (ATCC, cat. CRL-3276), 1.25 mM N-Acetyl-L-cysteine (Sigma-Aldrich, cat. A9165), 10 mM nicotinamide (Sigma-Aldrich, cat. N0636), 1X B-27 supplement (Thermo Fisher Scientific, cat. 17504044), 1X N-2 supplement (Thermo Fisher Scientific, cat. 17502048), 10 microM Y-27632 dihydrochloride (Tocris Bioscience, cat. 1254), and 50 ng/mL human EGF recombinant protein (Thermo Fisher Scientific, cat. PHG0311). The 485176-168-R4-J1-PDC line was cultured in Panc media, which includes all 6C/Colon 1B media components plus 100 ng/mL human FGF-10 (Thermo Fisher Scientific, cat. 100-26), 500 nM SB-431542 (Selleckchem, cat. S1067), and gastrin (Tocris, cat. 3006).
[…]
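Further: spheroids exposed to the agents for seven days.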
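Wherever viability, T/C is given: percent of DMSO vehicle control viability which is 100%.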

Cc1[nH]c2ccccc2c1CCNCc1ccc(/C=C/C(=O)NO)cc1 + Cc1[nH]c2ccc(F)cc2c1-c1nc2c3cccnc3c3ncccc3c2[nH]1
83.5 nM: IC50 (curve of first compound, second compound 0.1 µM)
16.2 nM: IC50 (curve of first compound, second compound 10 µM)
inactive: viability, T/C (second compound 0.0316 µM, first compound 0.000999 µM) 103% | viability, T/C (second compound 0.0316 µM, first compound 0.00316 µM) 85.6% | viability, T/C (second compound 0.0316 µM, first compound 0.00999 µM) 79.1% | viability, T/C (second compound 0.0316 µM, first compound 0.0316 µM) 64.2% | viability, T/C (second compound 0.0316 µM, first compound 0.0999 µM) 41.4% | viability, T/C (second compound 0.0316 µM, first compound 0.316 µM) 19.3% | viability, T/C (second compound 0.1 µM, first compound 0.000999 µM) 90.6% | viability, T/C (second compound 0.1 µM, first compound 0.00316 µM) 90.4% | viability, T/C (second compound 0.1 µM, first compound 0.00999 µM) 81.6% | viability, T/C (second compound 0.1 µM, first compound 0.0316 µM) 70.5% | viability, T/C (second compound 0.1 µM, first compound 0.0999 µM) 46.1% | viability, T/C (second compound 0.1 µM, first compound 0.316 µM) 17.3% | viability, T/C (second compound 0.316 µM, first compound 0.000999 µM) 94% | viability, T/C (second compound 0.316 µM, first compound 0.00316 µM) 94% | viability, T/C (second compound 0.316 µM, first compound 0.00999 µM) 71.2% | viability, T/C (second compound 0.316 µM, first compound 0.0316 µM) 62.3% | viability, T/C (second compound 0.316 µM, first compound 0.0999 µM) 44.8% | viability, T/C (second compound 0.316 µM, first compound 0.316 µM) 19.7% | viability, T/C (second compound 1 µM, first compound 0.000999 µM) 87.6% | viability, T/C (second compound 1 µM, first compound 0.00316 µM) 78.7% | viability, T/C (second compound 1 µM, first compound 0.00999 µM) 71.7% | viability, T/C (second compound 1 µM, first compound 0.0316 µM) 57.2% | viability, T/C (second compound 1 µM, first compound 0.0999 µM) 41.9% | viability, T/C (second compound 1 µM, first compound 0.316 µM) 21.2% | viability, T/C (second compound 3.16 µM, first compound 0.000999 µM) 69.8% | viability, T/C (second compound 3.16 µM, first compound 0.00316 µM) 64.9% | viability, T/C (second compound 3.16 µM, first compound 0.00999 µM) 53.6% | viability, T/C (second compound 3.16 µM, first compound 0.0316 µM) 45.1% | viability, T/C (second compound 3.16 µM, first compound 0.0999 µM) 41.3% | viability, T/C (second compound 3.16 µM, first compound 0.316 µM) 21.7% | viability, T/C (second compound 10 µM, first compound 0.000999 µM) 62% | viability, T/C (second compound 10 µM, first compound 0.00316 µM) 65.4% | viability, T/C (second compound 10 µM, first compound 0.00999 µM) 48.7% | viability, T/C (second compound 10 µM, first compound 0.0316 µM) 45.5% | viability, T/C (second compound 10 µM, first compound 0.0999 µM) 36.4% | viability, T/C (second compound 10 µM, first compound 0.316 µM) 20.8%
65.7 nM: IC50 (curve of first compound, second compound 0.316 µM)
54.6 nM: IC50 (curve of first compound, second compound 1 µM)
21 nM: IC50 (curve of first compound, second compound 3.16 µM)
63 nM: IC50 (curve of first compound, second compound 0.0316 µM)

CC1COCCN1c1cc(-c2ccnn2C)c2ccnc(-c3ccn[nH]3)c2n1 (stereo unspecified)
170 nM and 137 nM and 140 nM: IC50 (curve of compound)
inactive: viability, T/C (compound 0.0316 µM) 81% and 83.4% and 86.5% | viability, T/C (compound 0.1 µM) 59.5% and 53.2% and 55.1% | viability, T/C (compound 0.316 µM) 38.6% and 39.2% and 35.8% | viability, T/C (compound 1 µM) 26.8% and 24.3% and 27.8% | viability, T/C (compound 3.16 µM) 19.3% (2×) and 20.4% | viability, T/C (compound 10 µM) 18% and 15.8% and 15.7%

COc1ccc([C@@H](O)c2cc(-c3ncnc4cc(N5CCOCC5)ccc34)c(F)cc2Cl)nn1
inactive: viability, T/C (compound 0.0316 µM) 94.5% and 95% and 93.8% | viability, T/C (compound 0.1 µM) 98.8% and 89.7% and 92.3% | viability, T/C (compound 0.316 µM) 85.5% and 89.3% and 86.5% | viability, T/C (compound 1 µM) 73.6% and 74.7% and 67.5% | viability, T/C (compound 3.16 µM) 54.6% and 53.4% and 53.7% | viability, T/C (compound 10 µM) 35.3% and 42.5% and 31.2%
4050 nM and 4540 nM and 3480 nM: IC50 (curve of compound)
